Patent US20130065227A1, “METHODS OF INCREASING MACROPINOCYTOSIS IN CANCER CELLS” (priority 2010, published 2013)

Tests used:
Hs27 cells = test: Uptake of fluorophore-labeled oligonucleotides by flow cytometry; type: cell-based, human; settings: 10 μM, 2 h
Experimental: FIG. 1 are graphs showing that AS1411 cell internalization is an active process. Cells were plated 18 h before uptake analysis. After incubation as described, cells were washed with ice-cold PBS, incubated with 1 μg/ml 7-AAD, harvested and resuspended in 1% paraformaldehyde containing 2 μg/ml actinomycin D, then analyzed by flow cytometry. (Panel A) DU145 cells were incubated at 37° C. with fresh complete DMEM medium containing 10 μM FL-AS1411 (black line) or 10 μM FL-CRO (gray line) for the time indicated. (Panel B) DU145 cells were incubated for 2 h at 37° C. in complete or serum-free DMEM medium containing 10 μM FL-AS1411, or 10 μM FL-CRO, or no oligonucleotide. (Panel C) Various cell lines were incubated with 10 μM FL-AS1411 (black outline histogram), 10 μM FL-CRO (gray outline histogram) or without DNA (solid gray histogram) at 37° C. or 4° C. for 2 h. All experiments were repeated at least three times. Data are mean of three independent samples; bars, SE; *(p<0.05).
FIG. 2 are graphs showing that AS1411 is internalized by different endocytic mechanisms in DU145 cancer cells and in non-malignant Hs27 cells. DU145 or Hs27 cells were plated 18 h before uptake analysis. Cells were pre-treated as described with inhibitor (gray histogram) or the corresponding vehicle control (black histogram) before addition of 10 μM FL-AS1411 and incubation at 37° C. for 2 h. After incubation, cells were harvested and analyzed by flow cytometry. Pre-treatment conditions were at 37° C. with: (Panel A) 5 μM Cytochalasin D for 30 min; (Panel B) 80 μM Dynasore for 30 min; or (Panel C) 3 mM amiloride for 1 h. All experiments were repeated at least three times and representative data are shown. Solid gray histograms represent background autofluorescence of unstained cells.
FIG. 9 are graphs showing the effects of inhibitors on various endocytic pathways. DU145 or Hs27 cells were plated 18 hr before uptake analysis. (Panel A) DU145 cells were pre-treated with dynamin inhibitor, […] Dynasore (black histogram) or DMSO (gray histogram) for 30 min at 37° C. After pre-treatment, cells were treated with […] transferrin conjugated with Alexa Fluor 488 for 30 min at 37° C. (Panel B) DU145 and Hs27 cells were pre-treated with 3 mM amiloride (black histogram) or vehicle (serum-free medium, gray histogram) for 1 h at 37° C. After pre-treatment, FL-CRO was added at a concentration of 10 μM and incubated at 37° C. for 2 h. After incubation, cells were harvested and analyzed by FACS. Gray solid histogram represents unstained cells.
To analyze uptake of the oligodeoxynucleotides or dextran-10K (macropinocytic marker) by flow cytometry, 2×10^5 cells in fresh supplemented culture medium (2.5 ml) were plated into 6-well plates for 18 h. […]

several cell lines = test: Annexin V / PI flow cytometry to assess cell death; type: cell-based
Experimental: (A) Trypan blue staining of U937 leukemia cells showing percentage of dead cells (trypan blue positive) over time. (B) U937 cells were untreated (Un) or treated with 1 μM AS1411 (1411) or control oligonucleotide (Ctrl) for 72 h. DNA was extracted, electrophoresed on an agarose gel and stained with ethidium bromide to probe DNA laddering. As a positive control, […] were treated with UV irradiation to induce apoptosis as previously described. […] (D) U937 cells treated as described for panel B, followed by protein extraction and immunoblotting (IB) to detect PARP cleavage and Caspase-3 activation. (E) DU145 prostate cancer cells were incubated with 10 μM of AS1411 for 24 h, or irradiated with UV (300 J/m^2 with UV Stratalinker 2400, Strategene), then cultured in fresh medium for 6 h. Assessment of cell death was carried out by flow cytometry to detect Annexin V-FITC binding and PI staining.

## 5′-d(GGTGGTGGTGGTTGTGGTGGTGGTGG) [AS1411]
Hs27 cells
  uptake in Hs27 cells compared with cancer cells: higher uptake of AS1411 than any of the cancer cells analyzed
Several cell lines
  Annexin V / PI quadrant in which cells appear: Annexin V-positive/propidium iodide (PI)-positive quadrant (indicative of necrosis)
